Series [1] concerns the target T1, human DGAT1 (Homo sapiens, UniProt O75907).
T1 construct: FLAG (N); made in house; host or cells: SF9 insect cells (pFastBac baculovirus); total cell membranes used
T1 sequence (O75907 1-488): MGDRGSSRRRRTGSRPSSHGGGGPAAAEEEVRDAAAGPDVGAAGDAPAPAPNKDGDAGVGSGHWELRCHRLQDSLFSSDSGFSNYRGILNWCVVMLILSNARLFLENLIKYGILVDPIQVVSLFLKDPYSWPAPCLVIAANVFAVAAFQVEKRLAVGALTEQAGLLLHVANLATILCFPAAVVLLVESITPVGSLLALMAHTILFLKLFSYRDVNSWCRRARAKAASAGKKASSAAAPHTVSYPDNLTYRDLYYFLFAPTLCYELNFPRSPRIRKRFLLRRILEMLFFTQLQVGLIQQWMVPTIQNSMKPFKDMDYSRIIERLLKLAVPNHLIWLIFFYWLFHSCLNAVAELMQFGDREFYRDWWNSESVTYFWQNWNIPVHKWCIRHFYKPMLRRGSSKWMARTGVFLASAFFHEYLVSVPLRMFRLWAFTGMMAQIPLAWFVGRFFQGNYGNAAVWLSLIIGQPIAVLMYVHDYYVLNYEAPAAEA
The series can be described thus: DGAT1 FlashPlate assay: inhibition of DGAT1 activity in membrane preparations. In kind it is biochemical. Conditions: IC50 values expressed in M. An excerpt:
The inhibiting activity of the present compounds on DGAT1 activity was screened in a single well procedure assay using DGAT1 comprising membrane preparations and DGAT1 substrate comprising micelles and determining formed radio-active triacylglycerol coming in close proximity of a flashplate surface by radio luminescence.
Said assay is described in full detail in WO2006/067071, the content of which is incorporated herein by reference.
By DGAT1 activity is meant the transfer of coenzyme A activated fatty acids to the 3-position of 1,2-diacylglycerols, thus forming a triglyceride molecule, by enzyme DGAT1.
human DGAT1 (NM012079.2) was cloned into the pFastBac vector, containing translation start, a FLAG-tag at the N-terminus as described in literature and a viral Kozak sequence (AAX) preceding the ATG to improve expression in insect cells. Expression was done as described in literature (Cases, S., Smith, S. J., Zheng, Y., Myers H. M., Lear, S. R., Sande, E., Novak, S., Collins, C., Welch, C. B., Lusis, A. J., Erickson, S. K. and Farese, R. V. (1998) Proc. Natl. Acad. Sci. USA 95, 13018-13023.) using SF9 cells.
72 h transfected SF9 cells were collected by centrifugation (13000 rpm-15 min-4° C.) and lysed in 2×500 ml lysisbuffer (0.1M Sucrose, 50 mM KCl, 40 mM KH2PO4, 30 mM EDTA pH 7.2. Cells were homogenized by cell disruptor. After centrifugation 1380 rpm-15 min-4° C. (SN discarded), pellet was resuspended in 500 ml lysisbuffer and total cell membranes collected by ultracentrifugation at 34000 rpm (100 000 g) for 60 min (4° C.). The collected membranes were resuspended in lysis buffer, divided in aliquots and stored with 10% glycerol at −80° C. until use.
Add 1 ml dioleoyl-sn-glycerol (10 mg/ml) to 10 ml of L-α-phosphatidylcholine (1 mg/ml) and 10 ml of L-α-phosphatidyl-L-serine (1 mg/ml) in a thick glass recipient. Evaporate under nitrogen and put on ice for 15 minutes. Reconstitute in 10 ml Tris/HCl (10 mM, pH 7.4) by sonication on ice. The sonification process consists of sonification cycles of 10 seconds in the sonification bath followed by 10 seconds cool down on ice and repeating this sonification cycle till a homogeneous solution is obtained (takes about 15 minutes). The thus obtained micelles are stored at −20° C. till later use and contain DAG at a final concentration of 1.61 mM.
• a) Assaybuffer • 50 mM Tris-HCl (pH 7.4), 150 mM MgCl2, 1 mM EDTA, 0.2% BSA. • b) N-ethylmaleimide, 5M • Dissolve 5 g into a final volume of 8 ml DMSO 100% and store at −20° C. in aliquots till later use. • c) Substrate mix (for 1 384 well plate=3840 μl) • 612 μl micelles stock (51 μM final) • 16.6 μl oleoylCoA 9.7 mM • 23 μl [^3H]-oleoylCoA (49 Ci/mmol, 500 μCi/ml) 3188.4 μl Tris pH 7.4, 10 mM • d) Enzyme mix (for 1 384 well plate=3520 μl) (5 μg/ml) • Add 11.73 μl of DGAT membrane stock (1500 μg/ml stock) to 3508 μl assay buffer. • e) Stop mix (for 1 384 well plate=7.68 ml) (250 mM) • Add 384 μl of N-ethylmaleimide (5M) to 3.456 ml DMSO 100%, and further dilute 3.84 ml of said solution with 3.84 ml DMSO 10%. Method
DGAT activity in membrane preparations was assayed in 50 mM Tris-HCl (pH 7.4), 150 mM MgCl2, 1 mM EDTA and 0.2% BSA, containing 50 μM DAG, […] PC/PS and 8.4 μM [^3H]-oleoylCoA (at a specific activity of 30 nCi/well) in a final volume of 50 μl in 384-well format using the red shifted Basic Image FlashPlate™ (Perkin Elmer Cat. No. SMP400).
In detail, 10 μl enzyme mix and 10 μl substrate mix were added to 30 μl of assay buffer, optionally in the presence of 1 μl DMSO (blank and controls) or 1 μl of the compound to be tested. This reaction mixture was incubated for 120 minutes at 37° C. and the enzymatic reaction stopped by adding 20 μl of the stop mix. The plates were sealed and the vesicles allowed to settle overnight at room temperature. Plates were centrifuged for 5 minutes at 1500 rpm and measured in Leadseeker. […]

In turn, `N#C/N=C(/Nc1c(Cl)cccc1Cl)N1CCN(c2ccc(NC(=O)CCCc3ccccc3)cc2)CC1` [Compound 1] showed a concentration for half-maximal inhibition (IC50) in series [1] of 9.12 nM.

`N#C/N=C(\Oc1ccccc1)N1CCN(c2ccc(NC(=O)CCCc3ccccc3)cc2)CC1` [Compound 2] gave an IC50 in series [1] of 1820 nM.

`N#C/N=C(/Nc1ccccc1Cl)N1CCN(c2ccc(NC(=O)CCCc3ccccc3)cc2)CC1` [Compound 3] gave an IC50 in series [1] of 33.9 nM.

For the compound `Cc1ccccc1N/C(=N/C#N)N1CCN(c2ccc(NC(=O)CCCc3ccccc3)cc2)CC1` [Compound 4], the IC50 in series [1] was 36.3 nM.

`N#C/N=C(/Nc1ccccc1)N1CCN(c2ccc(NC(=O)CCCc3ccccc3)cc2)CC1` [Compound 5] gave an IC50 in series [1] of 1350 nM.

`Cc1ccccc1-c1cccc(C(=O)Nc2ccc(N3CCN(/C(=N\C#N)Nc4c(Cl)cc(CN5CCCC5)cc4Cl)CC3)cc2)c1` [Compound 6] had a melting point of 217.1 °C. Also, it took 2.4 nM to reach half-maximal inhibition in series [1] (IC50).

As to `CN1CCN(C(=O)c2cc(Cl)c(N/C(=N/C#N)N3CCN(c4ccc(NC(=O)c5cccc(N6CCCC6)c5)cc4)CC3)c(Cl)c2)CC1` [Compound 7], the half-maximal inhibitory concentration (IC50) in series [1] is 5.25 nM.

The compound `COc1ccc(CC(=O)Nc2ccc(N3CCN(/C(=N\C#N)Nc4c(C)cccc4Cl)CC3)cc2)cc1` [Compound 8] registered a melting point of 206.9 °C. Moreover, in series [1], the “pIC50 (mean)” value worked out at 8.23.

With `COC(=O)c1ccc(N/C(=N/C#N)N2CCN(c3ccc(NC(=O)c4cccc(N5CCCC5)c4)cc3)CC2)c(Cl)c1` [Compound 9], the melting point was determined as 220.3 °C. Besides, the 50% inhibitory concentration (IC50) in series [1] was 6.31 nM.

The compound `COCCN1CCN(C(=O)c2cc(Cl)c(N/C(=N/C#N)N3CCN(c4ccc(NC(=O)Cc5ccc(OC)cc5)cc4)CC3)c(Cl)c2)CC1` [Compound 10] yielded a melting point of 205.3 °C. For the same compound, the “pIC50 (mean)” value in series [1] is given as 8.17.

Compound `COc1ccc(CC(=O)Nc2ccc(N3CCN(/C(=N\C#N)Nc4c(Cl)cc(CN5CCCC5)cc4Cl)CC3)cc2)cc1` [Compound 11] returned a melting point of 222.4 °C. The “pIC50 (mean)” value in series [1] turned out to be 8.16.

For the compound `Cc1cc(C)n(-c2cccc(C(=O)Nc3ccc(N4CCN(/C(=N\C#N)Nc5c(Cl)cc(CN6CCCC6)cc5Cl)CC4)cc3)c2)n1` [Compound 12], the “pIC50 (mean)” value in series [1] stood at 7.84.

On to `N#C/N=C(/Nc1ccc(C(=O)O)cc1Cl)N1CCN(c2ccc(NC(=O)CCCc3ccccc3)cc2)CC1` [Compound 13], for which the melting point was determined as 208.7 °C. In addition, in series [1], the “pIC50 (mean)” value is on record as 7.58.

Consider `CCCCCCC(=O)Nc1ccc(N2CCN(/C(=N\C#N)Nc3ccc(C(=O)OC)cc3Cl)CC2)cc1` [Compound 14], for which the melting point worked out at 191.8 °C. Also, in series [1], the “pIC50 (mean)” value was determined as 7.24.

In turn, `COCCN1CCN(C(=O)c2cc(Cl)c(N/C(=N/C#N)N3CCN(c4ccc(NC(=O)CNc5ccccc5)cc4)CC3)c(Cl)c2)CC1` [Compound 15] displayed a melting point of 211.9 °C. For the same compound, in series [1], the “pIC50 (mean)” value was 7.20.

`CC(=O)OCC(=O)Nc1ccc(N2CCN(/C(=N\C#N)Nc3c(F)cccc3Cl)CC2)cc1` [Compound 16] had a melting point of 209 °C. For the same compound, the “pIC50 (mean)” value in series [1] is 6.79.

Regarding `Cc1cccc(Cl)c1N/C(=N/C#N)N1CCN(c2ccc(NC(=O)c3ccc(N4CCN(C)CC4)cc3)cc2)CC1` [Compound 17], the melting point stood at 285.1 °C. In addition, in series [1], the “pIC50 (mean)” value is on record as 6.64.

Turning to `CN1CCN(c2ccc(C(=O)Nc3ccc(N4CCN(/C(=N\C#N)Nc5ccccc5Cl)CC4)cc3)cc2)CC1` [Compound 18], the melting point was found to be 244.2 °C. Also, the “pIC50 (mean)” value in series [1] came out at 6.10.

As for `COCCN1CCN(C(=O)c2cc(Cl)c(N/C(=N/C#N)N3CCN(c4ccc(NC(=O)c5ccccc5N5CCN(C)CC5)cc4)CC3)c(Cl)c2)CC1` [Compound 19], the melting point was determined as 254.2 °C. Moreover, the “pIC50 (mean)” value in series [1] is recorded as 5.54.

What is called IC50 is the concentration that inhibits the measured activity by half. Read a low IC50 as greater potency in that assay. A word on the melting point: it is the temperature of the solid-liquid transition.

The values above are taken from patent US8633197B2, “Piperidine/piperazine derivatives” (Janssen Pharmaceutica N.V., priority 2007, dated 2014).
